We go through seven molecules from patent publication US6586478B2, “Methods and compositions for improving sleep” (Cellegy Canada, priority 2000, dated 2003).

Each structure is given as a SMILES string.

Data set [1] deals with sleep disorders including PLMS. The data set can be described thus: Example 1, Subject 1: person with sleep disorders including PLMS. As to conditions: Subject 1, history before the GTN patch. Type of data set: in vivo, human. Here is the method: The subject was a person with a history of sleep disorders including PLMS for at least 4 years. Over this period the subject had five visits to a sleep laboratory, which confirmed their diagnosis of PLMS, and through which various treatments were devised. These included drug therapies with PAXIL/WELLBUTRIN, CLOMIPRAMINE, IMOVANE, DESIPPAMINE, ZOLOFT, TEMAZEPAM, TRYPTAN, and FLUVOXAMINE.
At this point, the subject was administered a 1.65 cm^2 GTN patch as described above in reference to Table 4. The patch was applied just before retiring at night. This was repeated for three consecutive nights. […] On the fourth night, the subject applied a 1.1 cm^2 GTN patch, and on the fifth night, a 0.825 cm^2 GTN patch.

The nature of data set [2]: Plasma levels of nitroglycerin delivered from transdermal patches. The data set is classed as in vivo. The procedure: (§1) 3M MINITRAN transdermal nitroglycerin patches of 10 cm^2 and 20 cm^2 areas deliver plasma levels of 102 pg/mL and between 129 pg/mL and 310 pg/mL, respectively. The 3.3 cm^2 patch, with a total loading of 9 mg of nitroglycerin in each patch, has a mean rate of drug delivery of about […]. The two smaller patches (1.65 cm^2 and 0.825 cm^2) used in the studies described herein had areas of one half and one fourth the 3.33 cm^2 patch. Based on the ratios of patch surface area and assuming linearity in the rates of drug delivery, the estimated rates of delivery and extrapolated values of plasma levels of nitroglycerin for the three low or microdose patches are given in Table 1.

A short description of data set [3]: Rate of drug delivery (release) from transdermal nitroglycerin patches. As to conditions: after 8 hours, 0.83 cm^2 patch. Here is the method: as §1
Nitroglycerin for the treatment of RLS, PLMS and sleep symptoms was provided in single dose transdermal patches packaged in individual foil pouches. Each single dose transdermal patch has a surface area of 0.83 cm^2, contains 2.25 mg of nitroglycerin, and releases the nitroglycerin at a rate of 0.025 mg/hour (0.75 mg/cm^2/24 hours). After 8 hours 85% of the nitroglycerin remains entrained in the adhesive substrate of the transdermal patch.

For `CN1CCN(C(=O)OC2c3nccnc3C(=O)N2c2ccc(Cl)cn2)CC1` (centres unmarked) [IMOVANE], the “success of earlier drug therapies in treating the symptoms of the sleep disorder” value (from here on “success of earlier drug therapies”) in data set [1] is given as “None of the drug therapies were successful”.

With `CN(C)CCCN1c2ccccc2CCc2ccc(Cl)cc21` [CLOMIPRAMINE], the “success of earlier drug therapies” value in data set [1] is listed as “None of the drug therapies were successful”.

As for `CN[C@H]1CC[C@@H](c2ccc(Cl)c(Cl)c2)c2ccccc21` [ZOLOFT], the “success of earlier drug therapies” value in data set [1] was “None of the drug therapies were successful”.

With `CN1C(=O)C(O)N=C(c2ccccc2)c2cc(Cl)ccc21` (centres unmarked) [TEMAZEPAM, temazepam], the “success of earlier drug therapies” value in data set [1] is on record as “None of the drug therapies were successful”.

Take `O=[N+]([O-])OCC(CO[N+](=O)[O-])O[N+](=O)[O-]` [Nitroglycerin, nitroglycerin]: the “Plasma Level” value in data set [2] (0.825 cm^2 patch, extrapolated from larger-size patches assuming linearity) is given as 9^3 pg/mL; in data set [2] (1.65 cm^2 patch, extrapolated from larger-size patches assuming linearity) it was 17^3 pg/mL; in data set [2] (3.33 cm^2 patch, extrapolated from larger-size patches assuming linearity), 34^3 pg/mL; in data set [2] (10 cm^2 patch) it was 102^1 pg/mL. Further, the “nitroglycerin remaining entrained in the adhesive substrate of the patch” value in data set [3] stood at 85%.

As to `COCCCC/C(=N\OCCN)c1ccc(C(F)(F)F)cc1` [FLUVOXAMINE], in data set [1], the “success of earlier drug therapies” value was “None of the drug therapies were successful”.

On to `CNCCCN1c2ccccc2CCc2ccccc21` [DESIPPAMINE], for which the “success of earlier drug therapies” value in data set [1] is on record as “None of the drug therapies were successful”.
